Measurements from paper PMC3156125, “Reconstitution of the Costunolide Biosynthetic Pathway in Yeast and Nicotiana benthamiana” (PLoS ONE, 2011).

Key:
Type in all cases: cell-based
CiGAS-l (CiGAS-long) = molecular target: T1, CiGAS-l (CiGAS-long) (Cichorium intybus, UniProt Q8LSC3); assay: yeast culture extract, GC-MS; conditions: endogenous farnesyl diphosphate
T1 sequence (Q8LSC3 1-583): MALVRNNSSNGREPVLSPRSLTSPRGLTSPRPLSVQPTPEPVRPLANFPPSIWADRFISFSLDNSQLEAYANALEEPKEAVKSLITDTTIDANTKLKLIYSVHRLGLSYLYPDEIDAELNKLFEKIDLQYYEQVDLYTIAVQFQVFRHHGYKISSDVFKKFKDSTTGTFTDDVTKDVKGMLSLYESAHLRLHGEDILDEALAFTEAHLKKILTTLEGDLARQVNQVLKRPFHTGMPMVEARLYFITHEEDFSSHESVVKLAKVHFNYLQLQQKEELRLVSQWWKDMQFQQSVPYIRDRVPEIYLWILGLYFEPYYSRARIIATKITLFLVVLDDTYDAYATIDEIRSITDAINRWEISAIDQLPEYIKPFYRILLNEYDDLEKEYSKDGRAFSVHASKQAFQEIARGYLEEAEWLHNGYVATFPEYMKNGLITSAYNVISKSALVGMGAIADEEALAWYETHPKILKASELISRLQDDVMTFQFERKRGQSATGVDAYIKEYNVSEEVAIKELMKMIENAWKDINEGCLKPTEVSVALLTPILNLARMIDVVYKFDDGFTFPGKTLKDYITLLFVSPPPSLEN

CiGAO [1] = molecular target: T2, CiGAO (Cichorium intybus, UniProt D5JBW8); assay: N. benthamiana co-infiltration, headspace GC-MS; conditions: with mTpGAS; substrate formed in situ
T2 construct: cDNA from chicory library, no terminal tags, pESC-Trp in WAT11 yeast with TpGAS
T2 sequence (D5JBW8 1-488): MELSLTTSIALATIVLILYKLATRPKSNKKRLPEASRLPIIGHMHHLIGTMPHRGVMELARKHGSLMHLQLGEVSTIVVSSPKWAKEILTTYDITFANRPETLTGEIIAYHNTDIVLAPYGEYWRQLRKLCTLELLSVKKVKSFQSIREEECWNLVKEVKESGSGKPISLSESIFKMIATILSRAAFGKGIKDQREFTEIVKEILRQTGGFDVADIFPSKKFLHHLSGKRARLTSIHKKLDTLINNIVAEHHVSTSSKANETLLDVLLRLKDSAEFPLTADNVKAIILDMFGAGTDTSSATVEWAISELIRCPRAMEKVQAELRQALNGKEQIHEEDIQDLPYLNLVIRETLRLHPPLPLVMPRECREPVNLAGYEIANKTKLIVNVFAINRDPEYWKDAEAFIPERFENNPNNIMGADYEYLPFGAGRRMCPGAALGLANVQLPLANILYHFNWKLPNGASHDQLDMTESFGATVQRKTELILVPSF

TpGAS = molecular target: T3, TpGAS (Tanacetum parthenium, UniProt F8UL80); assay: yeast culture extract, GC-MS; conditions: endogenous farnesyl diphosphate; also N. benthamiana headspace
T3 construct: gene GAS
T3 sequence (F8UL80 1-559): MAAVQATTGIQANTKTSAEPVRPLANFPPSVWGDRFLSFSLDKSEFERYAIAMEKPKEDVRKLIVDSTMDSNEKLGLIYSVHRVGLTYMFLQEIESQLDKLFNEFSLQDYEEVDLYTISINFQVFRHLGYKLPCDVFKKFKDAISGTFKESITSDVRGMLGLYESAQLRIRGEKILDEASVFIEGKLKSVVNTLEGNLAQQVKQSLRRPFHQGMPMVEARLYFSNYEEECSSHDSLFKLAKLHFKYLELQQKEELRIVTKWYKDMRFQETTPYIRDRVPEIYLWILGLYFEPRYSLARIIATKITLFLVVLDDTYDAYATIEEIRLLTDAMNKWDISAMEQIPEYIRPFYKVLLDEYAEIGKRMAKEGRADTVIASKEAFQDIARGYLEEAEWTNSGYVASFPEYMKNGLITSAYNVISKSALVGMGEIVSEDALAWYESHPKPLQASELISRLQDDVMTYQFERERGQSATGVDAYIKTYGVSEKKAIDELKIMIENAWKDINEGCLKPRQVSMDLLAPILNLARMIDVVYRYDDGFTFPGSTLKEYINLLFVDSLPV

CiCOS = molecular target: T4, CiCOS (Cichorium intybus, UniProt G3GBK0); assay: yeast co-expression, GC-MS and UPLC-MRM-MS; conditions: WAT11 yeast with TpGAS and CiGAO; substrate formed in situ; HEPES or MOPS pH 7.5, 30 °C; also N. benthamiana transient expression
T4 construct: gene CYP71BL3; full-length cDNA in pYEDP60, WAT11 yeast, co-expressed with TpGAS and CiGAO; also N. benthamiana
T4 sequence (G3GBK0 1-494): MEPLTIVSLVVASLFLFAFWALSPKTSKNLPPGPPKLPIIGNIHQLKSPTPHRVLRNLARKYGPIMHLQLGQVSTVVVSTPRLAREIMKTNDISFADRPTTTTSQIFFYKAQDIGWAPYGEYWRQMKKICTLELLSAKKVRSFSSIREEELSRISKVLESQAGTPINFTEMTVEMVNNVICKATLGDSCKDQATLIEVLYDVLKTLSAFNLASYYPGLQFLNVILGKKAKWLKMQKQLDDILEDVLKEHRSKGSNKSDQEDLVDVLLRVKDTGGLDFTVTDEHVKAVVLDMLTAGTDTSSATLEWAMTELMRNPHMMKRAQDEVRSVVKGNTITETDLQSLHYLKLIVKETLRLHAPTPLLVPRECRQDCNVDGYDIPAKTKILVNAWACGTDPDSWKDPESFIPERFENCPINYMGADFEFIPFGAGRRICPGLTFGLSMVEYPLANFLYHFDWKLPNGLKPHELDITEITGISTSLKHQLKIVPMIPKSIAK

CiGAO [2] = molecular target: T2, CiGAO; assay: yeast co-expression, GC-MS; conditions: WAT11 yeast with TpGAS; detected as elematrien-12-oic acid after heat rearrangement

## C=C(C)[C@H]1C/C=C(\C)CC/C=C(\C)CC1 [germacrene A]
CiGAS-l (CiGAS-long)
  yeast culture extract, GC-MS: Germacrene A production in yeast. A yeast culture transformed by either CiGAS-long
CiGAO [1]
  N. benthamiana co-infiltration, headspace GC-MS: CiGAO can efficiently catalyse the conversion of the product of mTpGAS, germacrene A
TpGAS
  yeast culture extract, GC-MS: yeast culture expressing TpGAS had an approximately three fold higher activity

## C=C1C(=O)O[C@@H]2/C=C(\C)CC/C=C(\C)CC[C@@H]12 [costunolide]
CiCOS
  yeast co-expression, GC-MS and UPLC-MRM-MS: encodes an enzymatic activity which was able to produce costunolide

## C=C(C(=O)O)[C@H]1C/C=C(\C)CC/C=C(\C)CC1 [germacra-1(10),4,11(13)-trien-12-oic acid]
CiGAO [2]
  yeast co-expression, GC-MS: enzymatic activity was confirmed in our yeast system by co-expression of TpGAS and CiGAO
